Here are results for 14 molecules from paper PMC11852496, “A Modular Customizable Ligand-Conjugate (LC) System Targeting Ghrelin O-Acyltransferase” (Biomolecules, 2025).

This test addresses T1, hGOAT (human ghrelin O-acyltransferase) (Homo sapiens, UniProt Q96T53).
T1 construct: made in house; host or cells: Sf9 insect cells (membrane/microsomal fraction)
T1 sequence (Q96T53 1-435): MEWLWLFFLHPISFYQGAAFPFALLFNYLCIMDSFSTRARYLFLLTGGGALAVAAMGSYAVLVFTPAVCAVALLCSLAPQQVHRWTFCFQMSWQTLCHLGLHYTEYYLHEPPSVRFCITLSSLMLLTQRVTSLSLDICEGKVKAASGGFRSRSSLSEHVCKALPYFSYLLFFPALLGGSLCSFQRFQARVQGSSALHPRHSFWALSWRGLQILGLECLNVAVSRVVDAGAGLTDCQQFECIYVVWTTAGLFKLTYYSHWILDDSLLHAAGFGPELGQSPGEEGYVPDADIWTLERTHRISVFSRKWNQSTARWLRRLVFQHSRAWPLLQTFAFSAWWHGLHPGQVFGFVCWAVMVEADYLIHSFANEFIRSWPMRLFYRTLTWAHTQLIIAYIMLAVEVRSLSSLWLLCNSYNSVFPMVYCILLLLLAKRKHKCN
Briefly: GOAT ghrelin acylation (octanoylation) inhibition assay, membrane fraction of Sf9 cells expressing hGOAT, HPLC readout. The format is biochemical. The conditions noted are these: for IC50: average of three independent trials; for IC50 relative to parent ligand 5: fold change relative to ligand 5; for change in binding potency with PEG3 linker B compared to linker A: primed ligand (linker B) relative to unprimed ligand (linker A). As to the method:
The microsomal fraction containing hGOAT for the ligand-binding studies by IC50 determination was prepared according to published protocols. For the GOAT inhibition assay, serial dilutions of 0, 0.15, 0.5, 1, 5, 15, and 50 µM concentrations were prepared in 50% acetonitrile for each ligand used. The membrane fractions from the Sf9 cells expressing GOAT were first thawed on ice then passed through an 18-gauge needle 10 times to homogenize them. The assays were performed with approximately 30 µg of the membrane protein as determined through a Bradford assay. The standard reaction conditions contained 50 mM HEPES pH 7.0, 1 µM MAFP, 30 µg of membrane protein, and ultrapure water. The ligands were added to the reaction mixtures and incubated for 30 min at room temperature protected from light prior to the reaction initiation. The reactions were initiated by octanoyl CoA (300 µM final concentration) and GSSFLCAcdan (0.3 µM final concentration) in a total reaction volume of 50 µL. […] The reactions were stopped with 50 µL of 20% acetic acid in isopropanol. The excess membrane fraction was precipitated with 16.7 µL of 40% trichloroacetic acid (TCA) followed by a 1000× g centrifugation for 2 min. The supernatant was then analyzed via reverse-phase HPLC in 100 µL samples as previously described. The inhibition trials were run in triplicate, with the reported IC50 values representing the average of at least three trials. The IC50 values for all LCs are reported in Supplemental Table S2.
The assays were analyzed on reverse-phase HPLC (Zorbax Eclipse XDB column, 4.6 × 150 mm) using a solvent gradient from […] in aqueous 0.05% TFA over 5 min at a flow rate of 1 mL/min, followed by a gradient of […] in 0.05% TFA over 1 min, 100% acetonitrile for 5 min, and a gradient of 100% acetonitrile to 30% acetonitrile in 0.05% TFA for 5 min. The total time for each run was 16 min. The peptides were detected by the attached acrylodan label with the UV absorbance at 360 nm and fluorescence (λex = 360 nm, λem = 485 nm). The octanoylated peptide typically eluted at around 7.5 min, with the unreacted peptide eluting at around 2.5 min. Chemstation for LC (Agilent Technologies) was used for peak integration.
The peak integrations were used to determine the percent conversion in the presence of either the inhibitor (ligand, LC) or the vehicle (50% acetonitrile). The percent activity was calculated using Equation (1):(1) % peptide octanoylationa=fluorescence of octanoylated peptide/total peptide fluorescence,
IC50 values were determined by fitting Equation (2) to the plot of % activity against inhibitor concentration:(2) % activity=% vehicle1−Inhibitor/Inhibitor+IC50
[formula] Scheme 1 The GOAT inhibition assay for determining ligand binding. The octanoylation of a fluorescently labeled ghrelin-mimetic peptide substrate is inhibited by LC binding, with GOAT octanoylation activity and inhibition determined as described in the Section 2.

Setting [1] is: ± one standard deviation, read-out: IC50 against hGOAT.

“And” between values parts separate entries of the source, which are not always exact repeats. Equal values may be shown once. Read-outs that look alike come from different tables or passages of the source. Non-standard residues stand in square brackets, D forms with d. Residues, ends and D or L forms follow the SMILES beside them. *: point of attachment. X4 = CN1C(=C/C=C/C=C/C2=[N+](CCCCCC(=O)NCCCn3cc(COC[C@H]4CC[C@H](CN5C(=O)CC(*)C5=O)CC4)nn3)c3ccc(S(=O)(=O)[O-])cc3C2(C)C)C(C)(C)c2cc(S(=O)(=O)O)ccc21; X2 = N=c1ccc2c(-c3ccc(C(=O)NCCCn4cc(COC[C@H]5CC[C@H](CN6C(=O)CC(*)C6=O)CC5)nn4)cc3C(=O)O)c3ccc(N)c(S(=O)(=O)O)c3oc-2c1S(=O)(=O)O; X5 = COc1cc(/N=N/c2ccc(C)cc2[N+](=O)[O-])c(C)cc1/N=N/c1ccc(N(C)CCCC(=O)NCCn2cc(COC[C@H]3CC[C@H](CN4C(=O)CC(*)C4=O)CC3)nn2)cc1; X3 = O=C(NCCCn1cc(COC[C@H]2CC[C@H](CN3C(=O)CC(*)C3=O)CC2)nn1)c1ccc2c(c1)C(=O)OC21c2ccc(O)cc2Oc2cc(O)ccc21; X7 = C#CCOC[C@H]1CC[C@H](CN2C(=O)CC(*)C2=O)CC1; 1Nal = N[CH](Cc1cccc2ccccc12)C(=O)O; X1 = O=C1NC2CSC(CCCCC(=O)*)C2N1; PEG3 = NCCOCCOCCOCCC(=O)O; Dap = NC[CH](N)C(=O)O Where only a bound is given, the exact number is not on record here.

As to `CC(C)CC(NC(=O)C(Cc1cccc2ccccc12)NC(=O)C(CN)NC(=O)C(CO)NC(=O)CN)C(=O)NC(CO)C(=O)N1CCCC1C(=O)NC(C(=O)NCCOCCOCCOCCC(=O)NC(CS)C(N)=O)C(C)O` (stereo not drawn) [Ligand 3] (H-GS[Dap][1Nal]LSPT[PEG3]C-NH2; configuration not given here), the IC50 (as a rule, the midpoint of a concentration-inhibition curve) under setting [1] is 28.9 nM and 29 nM. The same measure, in the same setting: to `C#CCOC[C@H]1CC[C@H](CN2C(=O)CC(SC[C@H](NC(=O)CCOCCOCCOCCNC(=O)[C@@H](NC(=O)[C@@H]3CCCN3C(=O)[C@H](CO)NC(=O)[C@H](CC(C)C)NC(=O)[C@H](Cc3cccc4ccccc34)NC(=O)[C@H](CN)NC(=O)[C@H](CO)NC(=O)CN)[C@@H](C)O)C(N)=O)C2=O)CC1` (stereo partly drawn) [Ligand 5, H-GS-Dap-Nal-1-LSPT-Mini-PEG3a-C-Linker] (H-GS[Dap][1Nal]LSPT[PEG3]C(X7)-NH2) belongs 13 ± 1 nM. Consider `CC(C)C[C@H](NC(=O)[C@H](Cc1cccc2ccccc12)NC(=O)[C@H](CN)NC(=O)[C@H](CO)NC(=O)CN)C(=O)N[C@@H](CO)C(=O)N1CCC[C@H]1C(=O)N[C@H](C(=O)NCCOCCOCCOCCC(=O)N[C@@H](CCn1cc(COC[C@H]2CC[C@H](CN3C(=O)C=CC3=O)CC2)nn1)C(N)=O)[C@@H](C)O` [Ligand 6, H-GS-Dap-Nal-1-LSPT-Mini-PEG3a-AHA-Linker], for which the IC50 runs as follows: (apparent IC50, read-out: IC50 against hGOAT) > 1000 nM and 1000 nM; under setting [1], 1050 ± 79.5 nM. Take `CC(C)C[C@H](NC(=O)[C@H](Cc1cccc2ccccc12)NC(=O)[C@H](CN)NC(=O)[C@H](CO)NC(=O)CN)C(=O)N[C@@H](CO)C(=O)N1CCC[C@H]1C(=O)N[C@H](C(=O)NCCOCCOCCOCCC(=O)N[C@@H](CSC1CC(=O)N(C[C@H]2CC[C@H](COCc3cn(CCCNC(=O)c4ccc(-c5c6ccc(=N)c(S(=O)(=O)O)c-6oc6c(S(=O)(=O)O)c(N)ccc56)c(C(=O)O)c4)nn3)CC2)C1=O)C(N)=O)[C@@H](C)O` (stereo partly drawn) [Ligand 7, H-GS-Dap-Nal-1-LSPT-Mini-PEG3a-C-Linker-AF488azide] (H-GS[Dap][1Nal]LSPT[PEG3]C(X2)-NH2): the “IC50 relative to parent ligand 5” value was “six- to eight-fold higher”. Turning to `CC(C)C[C@H](NC(=O)[C@H](Cc1cccc2ccccc12)NC(=O)[C@H](CN)NC(=O)[C@H](CO)NC(=O)CN)C(=O)N[C@@H](CO)C(=O)N1CCC[C@H]1C(=O)N[C@H](C(=O)NCCOCCOCCOCCC(=O)N[C@@H](CSC1CC(=O)N(C[C@H]2CC[C@H](COCc3cn(CCCNC(=O)c4ccc5c(c4)C(=O)OC54c5ccc(O)cc5Oc5cc(O)ccc54)nn3)CC2)C1=O)C(N)=O)[C@@H](C)O` (stereo partly drawn) [Ligand 8, H-GS-Dap-Nal-1-LSPT-Mini-PEG3-C-Linker-FAM5azide] (H-GS[Dap][1Nal]LSPT[PEG3]C(X3)-NH2), the “IC50 relative to parent ligand 5” value was “six- to eight-fold higher”. Under setting [1], the half-inhibitory concentration (IC50) stood at 73.8 ± 4.8 nM.

As for `CC(C)C[C@H](NC(=O)[C@H](Cc1cccc2ccccc12)NC(=O)[C@H](CN)NC(=O)[C@H](CO)NC(=O)CN)C(=O)N[C@@H](CO)C(=O)N1CCC[C@H]1C(=O)N[C@H](C(=O)NCCOCCOCCOCCC(=O)N[C@@H](CSC1CC(=O)N(C[C@H]2CC[C@H](COCc3cn(CCCNC(=O)CCCCC[N+]4=C(/C=C/C=C/C=C5N(C)c6ccc(S(=O)(=O)O)cc6C5(C)C)C(C)(C)c5cc(S(=O)(=O)[O-])ccc54)nn3)CC2)C1=O)C(N)=O)[C@@H](C)O` (stereo partly drawn) [Ligand 9, H-GS-Dap-Nal-1-LSPT-Mini-PEG3a-C-Linker-SulfoCy5azide] (H-GS[Dap][1Nal]LSPT[PEG3]C(X4)-NH2), the “IC50 relative to parent ligand 5” value is recorded as “six- to eight-fold higher”. Besides, the IC50 under setting [1] is 84.4 ± 11.5 nM. Consider `COc1cc(/N=N/c2ccc(C)cc2[N+](=O)[O-])c(C)cc1/N=N/c1ccc(N(C)CCCC(=O)NCCn2cc(COC[C@H]3CC[C@H](CN4C(=O)CC(SC[C@H](NC(=O)CCOCCOCCOCCNC(=O)[C@@H](NC(=O)[C@@H]5CCCN5C(=O)[C@H](CO)NC(=O)[C@H](CC(C)C)NC(=O)[C@H](Cc5cccc6ccccc56)NC(=O)[C@H](CN)NC(=O)[C@H](CO)NC(=O)CN)[C@@H](C)O)C(N)=O)C4=O)CC3)nn2)cc1` (stereo partly drawn) [Ligand 12, H-GS-Dap-Nal-1-LSPT-Mini-PEG3-C-Linker-AzoDye1azide] (H-GS[Dap][1Nal]LSPT[PEG3]C(X5)-NH2), for which, under setting [1], the IC50 is 5.9 ± 1.7 nM. On the same count and under the same terms, to `CC(C)CC(NC(=O)C(Cc1cccc2ccccc12)NC(=O)C(CN)NC(=O)C(CO)NC(=O)CN)C(=O)NC(CO)C(=O)N1CCCC1C(=O)NC(C(=O)NCCOCCOCCOCCC(=O)NC(CCCCNC(=O)CCCCC1SCC2NC(=O)NC21)C(N)=O)C(C)O` (stereo not drawn) [Ligand 13] (H-GS[Dap][1Nal]LSPT[PEG3]K(X1)-NH2; configuration not given here) belongs 51.8 ± 5.7 nM.

`COc1cc2cc(c1Cl)N(C)C(=O)C[C@H](OC(=O)[C@H](C)N(C)C(=O)CCSC1CC(=O)N(C[C@H]3CC[C@H](COCc4cn(CC[C@H](NC(=O)CCOCCOCCOCCNC(=O)[C@@H](NC(=O)[C@@H]5CCCN5C(=O)[C@H](CO)NC(=O)[C@H](CC(C)C)NC(=O)[C@H](Cc5cccc6ccccc56)NC(=O)[C@H](CN)NC(=O)[C@H](CO)NC(=O)CN)[C@@H](C)O)C(N)=O)nn4)CC3)C1=O)[C@]1(C)O[C@H]1[C@H](C)[C@@H]1C[C@@](O)(NC(=O)O1)[C@H](OC)/C=C/C=C(\C)C2` (stereo partly drawn) [Ligand 14, H-GS-Dap-Nal-1-LSPT-Mini-PEG3a-AHA-Linker-Mertansine]: the IC50 (IC50 against hGOAT, ± one standard deviation) was 18.8 nM and ~20 nM. Turning to `CC(C)C[C@H](NC(=O)[C@H](Cc1cccc2ccccc12)NC(=O)[C@H](CN)NC(=O)[C@H](CO)NC(=O)CN)C(=O)N[C@@H](CO)C(=O)N1CCC[C@H]1C(=O)N[C@H](C(=O)NCCOCCOCCOCCC(=O)N[C@@H](CSC1CC(=O)N(CCNC(=O)CCCCC[N+]2=C(/C=C/C=C/C=C3N(C)c4ccc(S(=O)(=O)O)cc4C3(C)C)C(C)(C)c3cc(S(=O)(=O)[O-])ccc32)C1=O)C(N)=O)[C@@H](C)O` (stereo partly drawn) [Ligand 16], the IC50 under setting [1] is 56.8 ± 8.6 nM. Same read-out and setting: in the case of `COc1cc(/N=N/c2ccc(C)cc2[N+](=O)[O-])c(C)cc1/N=N/c1ccc(N(C)CCCC(=O)NCc2cn(CC[C@H](NC(=O)CCOCCOCCOCCNC(=O)[C@@H](NC(=O)[C@@H]3CCCN3C(=O)[C@H](CO)NC(=O)[C@H](CC(C)C)NC(=O)[C@H](Cc3cccc4ccccc34)NC(=O)[C@H](CN)NC(=O)[C@H](CO)NC(=O)CN)[C@@H](C)O)C(N)=O)nn2)cc1` [Ligand 17, H-GS-Dap-Nal-1-LSPT-Mini-PEG3a-AHA-AzoDye1alkyne] it was 3.9 ± 0.4 nM. With “H-GS-Dap-Nal-1-LSPT-Mini-PEG3a-C-Linker-TideQuencher2azide [Ligand 11]”, the “IC50 relative to parent ligand 5” value was “approximately two-fold higher”. Besides, the IC50 under setting [1] came to 25.7 ± 6.2 nM. For “H-GS-Dap-Nal-1-LSPT-Mini-PEG3b-C-NH2 [Ligand 3’]”, the “change in binding potency with PEG3 linker B compared to linker A” value is listed as “approximately four-fold drop”.

As to “H-GS-Dap-Nal-1-LSPT-Mini-PEG3b-C-SulfoCy5maleimide [Ligand 16’]”, the “change in binding potency with PEG3 linker B compared to linker A” value is “approximately two-fold increase”.
